Assay results as given in paper PMC10636171 (Cell Death & Disease, 2023).

Experiments:
[1] = system: MKN45; test: CCK8 antiproliferative assay; assay type: cell-based; details: Homo sapiens, MKN-45, 72 h, read-out: IC50, cell proliferation
Experimental: (§1) For cytotoxicity assay, the cells grown in the logarithmic phase were seeded into 96-well plates (7 × 10^3 cells/well) for 24 h, then exposed to different concentrations (10, 5, 1, 0.1, 0.01 and 0.001 μM) of the test compounds for 72 h. After attached cells were incubated with CCK8 (Sigma, USA) for another 1–4 h. Then the absorbance at 450 nm was measured using a multifunction microplate reader (Molecular Devices, Flex Station 3), and each experiment was performed at least in triplicate.

[2] = system: ASPC1; test: CCK8 antiproliferative assay; assay type: cell-based; details: Homo sapiens, ASPC1, 72 h, read-out: IC50, cell proliferation
Experimental: as §1

[3] = system: HS746T; test: CCK8 antiproliferative assay; assay type: cell-based; details: Homo sapiens, Hs746T, 72 h, read-out: IC50, cell proliferation
Experimental: as §1

[4] = system: MHCC97H xenograft tumor; test: MHCC97H xenograft tumor model; assay type: in vivo, BALB/c nude mice; details: Tepotinib group (dose not given), ig, calculated through tumor weight
Experimental: (§2) Male BALB/c nude mice (5-week old, 18–20 g) were purchased from Beijing Vital River Laboratory Animal Technology (Beijing Vital River LaboratoryAnimal Technology Co., Ltd., Beijing,China) and allowed to acclimate for 1 week, maintained at constant room temperature and fed a standard rodent chow and water. 1 × 10^7 cells/mL cancer cells grown in logarithmic phase were harvested and resuspended in FBS-free 1640 medium. Then, 100 μL of the cell suspension was subcutaneously injected into the right flank of each mouse. When the tumour volume was reached about 600–800 mm^3, it was removed, minced into small pieces of equal volume (2 × 2 × 2 mm^3), and transplanted subcutaneously into the nude mice. When the tumour volume was reached about 200–400 mm^3, the xenograft tumour-bearing nude mice were randomly allocated to five groups (vehicle-treated, 1D228-2mgd-treated, 1D228-4mgd-treated […] Tepotinib-treated groups, with 6 or 8 mice (The number of mice were determined according to previous experience on xenograft tumor models) per group. Each group was dosed by intragastric administration (ig) for 7–14 days. Tumour volume and body weights were recorded every day after drug treatment. At the end of the observation period, the animals were euthanized by cervical dislocation and the tumour bulks were peeled off conformed to the Guide for the Care and Use of Laboratory Animals as published by the US National Institutes of Health (NIH Publication No. 85-23, revised 1996) and approved by the Institutional Ethics Review Board of Binzhou Medical University. There was no blinding was done during the animal experiment. No animals were excluded from the analysis.

[5] = Liver microsomal stability assay; assay type: in vitro ADME; details: liver microsomes, pH 7.4
Experimental: The incubation system (including 0.1 M PH 7.4 phosphate buffer, NADPH generation system, UGT incubation system, 0.5 mg/mL liver microsomal protein and appropriate concentration of drug to be tested) was incubated in a water bath at 37 °C for […]. Each sample was incubated three times in parallel, and an equal volume of pre-chilled acetonitrile was added at preset reaction time points, such as 0, 5, 10, 15, 30 and 60 min. The reaction was terminated by the addition of acetonitrile. The remaining content of the prototype drug in the warm incubation solution was determined by HPLC, HPLC-MC and HPLC-MC/MC.

[6] = system: 284 kinases; design: method as in PMID 25736998; details: 100 nM; 284 kinases tested; cited from earlier work
[7] = system: MKN45 xenograft tumor; test: MKN45 xenograft tumor model; assay type: in vivo, BALB/c nude mice; details: 8 mg/kg/d, ig
Experimental: as §2

## CN1CCC(COc2cnc(-c3cccc(Cn4nc(-c5cccc(C#N)c5)ccc4=O)c3)nc2)CC1 [Tepotinib, reference compound]
[1]
  IC50: 0.00165 µM
[2]
  IC50: 3.78 µM
[3]
  IC50: 3.6 µM
[4]
  Tumor growth inhibition (TGI): 63.9%
[5]; Sprague-Dawley, rat, SD rats liver microsome
  half-life: 0.301 h
[5]; cynomolgus monkey, Macaca fascicularis liver microsome
  half-life: 22.5 h
[5]; dog, Beagle liver microsome
  half-life: 1.04 h
[5]; Human liver microsome
  half-life: 30.5 h
[5]; mouse, CD - 1 mice liver microsome
  half-life: 0.252 h
[6]
  Inhibition of kinases other than c-Met: not able to inhibit any other kinase
[7]
  TGI: 67.61%
